Test systems include 786-0 renal; HT29 colon; LOX IMVI melanoma; NCI-H226 lung; NCI-H460 lung; NCI/ADR-RES ovarian; SF-539 CNS; SK-OV-3 ovarian; SN12C renal; UO-31 renal.
Test in all cases: growth of human tumour cells (NCI), 48 h

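48-hour exposure; five concentrations; linearly interpolated endpoints. GI50: concentration for 50% inhibition of growth. TGI: concentration producing complete growth inhibition.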

Take `O=[N+]([O-])c1cc([As](Br)c2ccc(O)c([N+](=O)[O-])c2)ccc1O`: the TGI is 4.36 µM in the experiment on 786-0 renal; 25 µM in the experiment on HT29 colon; 3.96 µM in the experiment with LOX IMVI melanoma; 3.21 µM in the experiment on NCI-H226 lung; above 25.6 µM with NCI-H460 lung; 8.81 µM in the experiment on NCI/ADR-RES ovarian. The TGI is 3.93 µM in the experiment with SF-539 CNS, 9.71 µM in the experiment on SK-OV-3 ovarian, 3.3 µM in the experiment with SN12C renal and 3.23 µM in the experiment with UO-31 renal.
For `CCn1cc(/C=C2\Oc3cc(OCC#N)ccc3C2=O)c2cc(OC)ccc21`, the GI50 in the experiment with 786-0 renal was 0.167 µM; in the experiment with HT29 colon, 0.134 µM; with LOX IMVI melanoma it was 0.238 µM; with NCI-H226 lung, 6.65 µM; in the experiment on NCI-H460 lung, 0.347 µM; in the experiment on NCI/ADR-RES ovarian it was 0.161 µM. Moreover, the GI50 is 0.113 µM in the experiment on SF-539 CNS, 1.7 µM in the experiment with SK-OV-3 ovarian, 0.711 µM with SN12C renal and 0.669 µM in the experiment on UO-31 renal. The TGI was above 40.9 µM in the experiment on 786-0 renal; above 100 µM in the experiment with HT29 colon; above 100 µM with LOX IMVI melanoma; above 44.3 µM in the experiment with NCI-H226 lung; above 100 µM with NCI-H460 lung; above 32.9 µM in the experiment on NCI/ADR-RES ovarian. Moreover, the TGI is 0.818 µM in the experiment with SF-539 CNS, above 78.5 µM in the experiment with SK-OV-3 ovarian, above 100 µM in the experiment with SN12C renal and above 100 µM with UO-31 renal.
As for `CC(C)(C)[Si](C)(C)OC1[C@@H](CNC(N)=O)O[C@@H](n2cnc3c(NC(=O)Nc4ccccc4)ncnc32)[C@H]1O[Si](C)(C)C(C)(C)C` (stereo not given in full), the GI50 in the experiment on 786-0 renal is 2.22 µM; in the experiment on HT29 colon, 1.07 µM; in the experiment with LOX IMVI melanoma, 0.856 µM; in the experiment on NCI-H226 lung it was 5.39 µM; with NCI-H460 lung it was 1.02 µM; in the experiment on NCI/ADR-RES ovarian it was 2.93 µM. Moreover, the GI50 was 6.73 µM in the experiment with SF-539 CNS, 3.29 µM in the experiment on SK-OV-3 ovarian, 0.916 µM with SN12C renal and 1.92 µM with UO-31 renal. The TGI in the experiment on 786-0 renal was determined as 8.17 µM; with HT29 colon, 2.22 µM; in the experiment with LOX IMVI melanoma it was 1.56 µM; with NCI-H226 lung, 11.7 µM; in the experiment on NCI-H460 lung, 1.98 µM; in the experiment on NCI/ADR-RES ovarian, 9.81 µM. Besides, the TGI in the experiment with SF-539 CNS is 13.6 µM; with SK-OV-3 ovarian, 9.53 µM; with SN12C renal, 1.84 µM; in the experiment with UO-31 renal, 8.29 µM.
For the molecule `c1ccc(-c2nc3n(c2-c2ccc4c(c2)OCO4)CCC3)nc1`, the GI50 in the experiment with 786-0 renal was 3.89 µM; in the experiment with HT29 colon, 7.79 µM; in the experiment with LOX IMVI melanoma, 7.46 µM; in the experiment with NCI-H226 lung, 4.54 µM; with NCI-H460 lung it was 4.51 µM; in the experiment on NCI/ADR-RES ovarian it was 0.573 µM. Also, the GI50 in the experiment with SF-539 CNS was 6.38 µM; with SK-OV-3 ovarian it was 4.54 µM; with SN12C renal it was 7.56 µM; in the experiment with UO-31 renal, 0.611 µM. Moreover, the TGI with 786-0 renal was 24.9 µM; with HT29 colon, above 25 µM; with LOX IMVI melanoma, above 25 µM; with NCI-H226 lung it was 17 µM; in the experiment on NCI-H460 lung, 13.3 µM; in the experiment on NCI/ADR-RES ovarian, 9.59 µM. In addition, the TGI in the experiment on SF-539 CNS was 21.6 µM; in the experiment on SK-OV-3 ovarian it was 14.7 µM; with SN12C renal, above 25 µM; in the experiment with UO-31 renal it was 8.58 µM.
In the case of `N=c1ccc2nc3ccc(N)cc3sc-2c1`, the GI50 in the experiment on 786-0 renal was 9.99 µM; with HT29 colon, 11.1 µM; in the experiment on LOX IMVI melanoma, 2.72 µM; in the experiment with NCI-H226 lung, 12.4 µM; with NCI-H460 lung, 5.23 µM; with NCI/ADR-RES ovarian, 2.53 µM. Moreover, the GI50 is 3.21 µM in the experiment with SF-539 CNS, 15.6 µM in the experiment with SK-OV-3 ovarian, 3.19 µM in the experiment with SN12C renal and 26 µM with UO-31 renal. The TGI with 786-0 renal is 29.7 µM; in the experiment on HT29 colon, 40.8 µM; with LOX IMVI melanoma, 12.5 µM; in the experiment with NCI-H226 lung, 28.2 µM; in the experiment on NCI-H460 lung it was above 100 µM; with NCI/ADR-RES ovarian, 10.7 µM. Further, the TGI with SF-539 CNS was 8.62 µM; in the experiment with SK-OV-3 ovarian it was 63.5 µM; in the experiment on SN12C renal, 11 µM; in the experiment with UO-31 renal, above 100 µM.
For the molecule `O=C(Nc1cccc2[nH]c(C(F)(F)F)nc12)c1cc(Cl)ccc1Cl`, the GI50 was 3.01 µM in the experiment on 786-0 renal; 3.62 µM in the experiment on HT29 colon; 2.97 µM in the experiment on LOX IMVI melanoma; 3.39 µM in the experiment with NCI-H226 lung; 3.09 µM in the experiment with NCI-H460 lung; 2.87 µM in the experiment on NCI/ADR-RES ovarian. Further, the GI50 with SF-539 CNS is 3.07 µM; in the experiment with SK-OV-3 ovarian, 2.21 µM; in the experiment with SN12C renal it was 2.78 µM; with UO-31 renal, 2.78 µM. Also, the TGI in the experiment on 786-0 renal was 12.1 µM; with HT29 colon, 14.7 µM; in the experiment on LOX IMVI melanoma, 10 µM; with NCI-H226 lung, 25.5 µM; with NCI-H460 lung it was above 100 µM; in the experiment on NCI/ADR-RES ovarian it was 8.89 µM. For the same molecule, the TGI in the experiment with SF-539 CNS came to 15.3 µM; in the experiment on SK-OV-3 ovarian it was 6.06 µM; with SN12C renal, 9.59 µM; with UO-31 renal, 11.3 µM.
For the molecule `CC(=O)c1ccc2c(c1)N(CCCN1CCN(CCO)CC1)c1ccccc1S2`, the GI50 is 1.77 µM with 786-0 renal; 1.7 µM in the experiment with HT29 colon; 1.68 µM in the experiment with LOX IMVI melanoma; 7.14 µM in the experiment with NCI-H226 lung; 2.05 µM in the experiment on NCI-H460 lung; 3.05 µM in the experiment with NCI/ADR-RES ovarian. Further, the GI50 in the experiment with SF-539 CNS was 1.73 µM; with SK-OV-3 ovarian, 2.84 µM; in the experiment with SN12C renal, 3.88 µM; with UO-31 renal, 1.79 µM. The TGI was determined as 3.64 µM in the experiment with 786-0 renal; 3.75 µM in the experiment with HT29 colon; 3.26 µM in the experiment with LOX IMVI melanoma; 27.9 µM in the experiment with NCI-H226 lung; 4.09 µM in the experiment on NCI-H460 lung; 12.9 µM in the experiment on NCI/ADR-RES ovarian. In addition, the TGI was 3.55 µM in the experiment with SF-539 CNS, 10.1 µM in the experiment with SK-OV-3 ovarian, 17 µM with SN12C renal and 5.46 µM with UO-31 renal.

Source of the values: PubChem BioAssay (NCI).
